Data taken from US20060205769A1, “Piperidine or 8-aza-bicyclo[3.2.1]oct-3-yl derivatives useful as modulators of chemokine receptor activity” (priority 2003, published 2006).
Where a name gives a salt, the structure may show the parent alone.

Each molecule was assayed against T1, recombinant human CCR5 receptor (Homo sapiens, UniProt P51681) (assay: in vitro radioligand binding assay: inhibition of binding of iodinated MIP-1α to membranes of CHO cells expressing CCR5 (scintillation proximity)). Conditions: displacement of 0.1 nM iodinated MIP-1α; negative log (base 10) of IC50; average if tested more than once.
T1 construct: expressed in transfected cells; host or cells: Chinese hamster ovary (CHO) cells; membranes
T1 sequence (P51681 whole entry): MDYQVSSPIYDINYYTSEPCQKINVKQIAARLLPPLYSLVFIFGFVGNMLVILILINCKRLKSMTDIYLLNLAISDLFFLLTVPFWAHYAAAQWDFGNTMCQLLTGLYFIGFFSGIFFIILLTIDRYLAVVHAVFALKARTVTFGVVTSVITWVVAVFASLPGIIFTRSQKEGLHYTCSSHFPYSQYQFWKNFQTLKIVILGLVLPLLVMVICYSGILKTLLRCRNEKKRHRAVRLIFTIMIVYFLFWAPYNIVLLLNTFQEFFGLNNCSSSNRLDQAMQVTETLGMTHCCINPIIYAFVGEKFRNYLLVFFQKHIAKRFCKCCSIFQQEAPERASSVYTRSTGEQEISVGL
Experimental: The ability of compounds to inhibit the binding of MIP-1α was assessed by an in vitro radioligand binding assay. Membranes were prepared from Chinese hamster ovary cells which expressed the recombinant human CCR5 receptor. These membranes were incubated with 0.1 nM iodinated MIP-1α, scintillation proximity beads and various concentrations of the compounds of the invention in 96-well plates. The amount of iodinated MIP-1α bound to the receptor was determined by scintillation counting. Competition curves were obtained for compounds and the concentration of compound which displaced 50% of bound iodinated MIP-1α was calculated (IC50).
In Table IV the results are presented as Pic50 values. A Pic50 value is the negative log (to base 10) of the IC50 result, so an IC50 of 1 μM (that is 1×10^−6M) gives a Pic50 of 6. If a compound was tested more than once then the data below is an average of the probative tests results.

IC50	Structure (SMILES)
39.8 nM	CS(=O)(=O)N1CCC([C@@H](CCN2CCC(CCS(=O)(=O)C3CCNCC3)CC2)c2cc(F)cc(F)c2)CC1 [Table I Compound 2]
3.98 nM	CS(=O)(=O)N1CCC([C@@H](CCN2CCC(CCS(=O)(=O)C3CCN(S(=O)(=O)C(F)(F)F)CC3)CC2)c2cc(F)cc(F)c2)CC1 [Table I Compound 3]
3.16 nM	CS(=O)(=O)c1ccc([C@@H](CCN2CCC(CCS(=O)(=O)N3CCCCC3)CC2)c2cc(F)cc(F)c2)cc1 [Table III Compound 1, (R)-1-{3-(3,5-difluorophenyl)-3-[4-(methylsulfonyl)phenyl]propyl}-4-[2-(piperidin-1-ylsulfonyl)ethyl]piperidine hydrochloride]
